Experiments:
Format in all cases: in vivo
[1] = system: Echinochloa oryzicola Vasing. (Eo); experiment: Test for herbicidal effect by paddy field soil treatment (Test Example 1); details: application amount (active ingredient) 100 g/10 a, examined at the 21st day from the treatment, index per Table 40
Outline: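 Eo seeds sown in puddled paddy soil under 3 cm water; next day a water-diluted wettable powder was dropped onto the water surface at 100 g active ingredient per 10 ares. Herbicidal effect scored on a standard scale 21 days after treatment, greenhouse-grown.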

[2] = system: Echinochloa crus-galli (L.) Beauv. var. crusgall (Ec); experiment: Test for herbicidal effect by upland field soil treatment (Test Example 2), Ec
Outline: (§1)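 Echinochloa crus-galli and Setaria viridis were sown in upland field soil and covered, then the soil surface was sprayed with water-diluted wettable powder at 100 g active ingredient per 10 ares (100 liters per 10 ares). Plants were grown in a greenhouse and scored on a standard scale on day 21.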

[3] = system: Setaria viridis (L.) Beauv. (Se); experiment: Test for herbicidal effect by upland field soil treatment (Test Example 2), Se
Outline: as §1

[4] = system: Echinochloa crus-galli (L.) Beauv. var. crusgalli (Ec); experiment: Test for herbicidal effect by upland foliage treatment (Test Example 3); details: 100 g/10 a active ingredient, examined at 14th day
Outline: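 Potted upland-soil Ec seedlings grown 2 weeks in greenhouse, then foliage-sprayed with water-diluted wettable powder at 100 L per 10 ares, giving 100 g active ingredient per 10 ares. Herbicidal effect scored on a graded standard 14 days after treatment.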

[5] = 100 g/10 a active ingredient, examined at 21st day
[6] = application amount (active ingredient) 100 g/10 a, examined at the 21st day from the treatment, index per Table 40

| Compound | Herbicidal effect to Eo [1] | Herbicidal effect to Ec [2, 5] | Herbicidal effect to Se [3, 5] | Herbicidal effect to Ec [4] | Herbicidal effect to Ec [2, 6] | Herbicidal effect to Se [3, 6] |
| --- | --- | --- | --- | --- | --- | --- |
| CC1(C)CC(S(=O)(=O)Cc2cc(F)cc(F)c2F)=NO1 [Compound 1-508] | 5 (A herbicidal effect or phytotoxicity of 90% or more) | 5 (A herbicidal effect or phytotoxicity of 90% or more) | 5 (A herbicidal effect or phytotoxicity of 90% or more) | 4 (A herbicidal effect or phytotoxicity of 70% to less than 90%) |  |  |
| CC1(C)CC(S(=O)(=O)Cc2ccc(Cl)cc2Cl)=NO1 [Compound 1-488] | 5 (A herbicidal effect or phytotoxicity of 90% or more) |  |  | 4 (A herbicidal effect or phytotoxicity of 70% to less than 90%) | 5 (A herbicidal effect or phytotoxicity of 90% or more) | 4 (A herbicidal effect or phytotoxicity of 70% to less than 90%) |
| Cc1cccc(C)c1CS(=O)(=O)C1=NOC(C)(C)C1 [Compound 1-185] | 5 (A herbicidal effect or phytotoxicity of 90% or more) |  |  | 5 (A herbicidal effect or phytotoxicity of 90% or more) | 5 (A herbicidal effect or phytotoxicity of 90% or more) | 5 (A herbicidal effect or phytotoxicity of 90% or more) |
| CCC1(CC)CC(S(=O)(=O)Cc2c(F)cccc2F)=NO1 [Compound 1-364] | 5 (A herbicidal effect or phytotoxicity of 90% or more) |  |  | 4 (A herbicidal effect or phytotoxicity of 70% to less than 90%) | 5 (A herbicidal effect or phytotoxicity of 90% or more) | 5 (A herbicidal effect or phytotoxicity of 90% or more) |
| CC1(C)CC(S(=O)(=O)Cc2ccc(F)cc2F)=NO1 [Compound 1-505] | 5 (A herbicidal effect or phytotoxicity of 90% or more) | 5 (A herbicidal effect or phytotoxicity of 90% or more) | 5 (A herbicidal effect or phytotoxicity of 90% or more) | 5 (A herbicidal effect or phytotoxicity of 90% or more) |  |  |
| CC1(C)CC(S(=O)(=O)Cc2cc(F)c(F)c(F)c2)=NO1 [Compound 1-509] | 5 (A herbicidal effect or phytotoxicity of 90% or more) | 5 (A herbicidal effect or phytotoxicity of 90% or more) | 5 (A herbicidal effect or phytotoxicity of 90% or more) | 4 (A herbicidal effect or phytotoxicity of 70% to less than 90%) |  |  |
| CC1(C)CC(S(=O)(=O)Cc2cccc(Cl)c2)=NO1 [Compound 1-3] | 5 (A herbicidal effect or phytotoxicity of 90% or more) |  |  | 4 (A herbicidal effect or phytotoxicity of 70% to less than 90%) | 5 (A herbicidal effect or phytotoxicity of 90% or more) | 5 (A herbicidal effect or phytotoxicity of 90% or more) |
| Cc1cc(C)c(CS(=O)(=O)C2=NOC(C)(C)C2)c(C)c1 [Compound 1-529] | 5 (A herbicidal effect or phytotoxicity of 90% or more) | 5 (A herbicidal effect or phytotoxicity of 90% or more) | 5 (A herbicidal effect or phytotoxicity of 90% or more) | 5 (A herbicidal effect or phytotoxicity of 90% or more) |  |  |
| COc1cc(CS(=O)(=O)C2=NOC(C)(C)C2)cc(OC)c1 [Compound 1-524] | 5 (A herbicidal effect or phytotoxicity of 90% or more) | 5 (A herbicidal effect or phytotoxicity of 90% or more) | 5 (A herbicidal effect or phytotoxicity of 90% or more) | 5 (A herbicidal effect or phytotoxicity of 90% or more) |  |  |
| CC1(C)CC(S(=O)(=O)Cc2ccccc2S(C)(=O)=O)=NO1 [Compound 1-106] | 5 (A herbicidal effect or phytotoxicity of 90% or more) |  |  | 4 (A herbicidal effect or phytotoxicity of 70% to less than 90%) | 5 (A herbicidal effect or phytotoxicity of 90% or more) | 5 (A herbicidal effect or phytotoxicity of 90% or more) |
| CC1(C)CC(S(=O)(=O)Cc2cc(Cl)ccc2Cl)=NO1 [Compound 1-489] | 5 (A herbicidal effect or phytotoxicity of 90% or more) |  |  | 4 (A herbicidal effect or phytotoxicity of 70% to less than 90%) | 5 (A herbicidal effect or phytotoxicity of 90% or more) | 5 (A herbicidal effect or phytotoxicity of 90% or more) |
| Cc1ccc(CS(=O)(=O)C2=NOC(C)(C)C2)c(C)c1 [Compound 1-511] | 5 (A herbicidal effect or phytotoxicity of 90% or more) | 5 (A herbicidal effect or phytotoxicity of 90% or more) | 5 (A herbicidal effect or phytotoxicity of 90% or more) | 5 (A herbicidal effect or phytotoxicity of 90% or more) |  |  |
| CC1(C)CC(S(=O)(=O)Cc2c(Br)cccc2Br)=NO1 [Compound 1-554] | 5 (A herbicidal effect or phytotoxicity of 90% or more) | 5 (A herbicidal effect or phytotoxicity of 90% or more) | 5 (A herbicidal effect or phytotoxicity of 90% or more) | 5 (A herbicidal effect or phytotoxicity of 90% or more) |  |  |
| COc1cccc(OC)c1CS(=O)(=O)C1=NOC(C)(C)C1 [Compound 1-535] | 5 (A herbicidal effect or phytotoxicity of 90% or more) | 5 (A herbicidal effect or phytotoxicity of 90% or more) | 5 (A herbicidal effect or phytotoxicity of 90% or more) | 4 (A herbicidal effect or phytotoxicity of 70% to less than 90%) |  |  |
| CC1(C)CC(S(=O)(=O)Cc2ccccc2OCC2CC2)=NO1 [Compound 1-608] | 5 (A herbicidal effect or phytotoxicity of 90% or more) | 5 (A herbicidal effect or phytotoxicity of 90% or more) | 5 (A herbicidal effect or phytotoxicity of 90% or more) | 5 (A herbicidal effect or phytotoxicity of 90% or more) |  |  |
| COc1cccc(C)c1CS(=O)(=O)C1=NOC(C)(C)C1 [Compound 1-583] | 5 (A herbicidal effect or phytotoxicity of 90% or more) | 5 (A herbicidal effect or phytotoxicity of 90% or more) | 5 (A herbicidal effect or phytotoxicity of 90% or more) | 4 (A herbicidal effect or phytotoxicity of 70% to less than 90%) |  |  |
| CCCC1(C)CC(S(=O)(=O)Cc2c(F)cccc2F)=NO1 (centres unmarked) [Compound 1-366] | 5 (A herbicidal effect or phytotoxicity of 90% or more) |  |  | 4 (A herbicidal effect or phytotoxicity of 70% to less than 90%) | 5 (A herbicidal effect or phytotoxicity of 90% or more) | 5 (A herbicidal effect or phytotoxicity of 90% or more) |
| CC1(C)CC(S(=O)(=O)Cc2ccccc2I)=NO1 [Compound 1-521] | 5 (A herbicidal effect or phytotoxicity of 90% or more) | 5 (A herbicidal effect or phytotoxicity of 90% or more) | 5 (A herbicidal effect or phytotoxicity of 90% or more) | 5 (A herbicidal effect or phytotoxicity of 90% or more) |  |  |
| CCCc1cccc(F)c1CS(=O)(=O)C1=NOC(C)(C)C1 [Compound 1-553] | 5 (A herbicidal effect or phytotoxicity of 90% or more) | 5 (A herbicidal effect or phytotoxicity of 90% or more) | 5 (A herbicidal effect or phytotoxicity of 90% or more) | 5 (A herbicidal effect or phytotoxicity of 90% or more) |  |  |
| CC1(C)CC(S(=O)(=O)Cc2c(F)cccc2Cl)=NO1 [Compound 1-494] | 5 (A herbicidal effect or phytotoxicity of 90% or more) |  |  | 5 (A herbicidal effect or phytotoxicity of 90% or more) | 5 (A herbicidal effect or phytotoxicity of 90% or more) | 5 (A herbicidal effect or phytotoxicity of 90% or more) |
| CCC1(C)CC(S(=O)(=O)Cc2c(F)cccc2F)=NO1 (centres unmarked) [Compound 1-200, 5-ethyl-3-(2,6-difluorobenzylsulfonyl)-5-methyl-2-isoxazoline] | 5 (A herbicidal effect or phytotoxicity of 90% or more) |  |  | 4 (A herbicidal effect or phytotoxicity of 70% to less than 90%) | 5 (A herbicidal effect or phytotoxicity of 90% or more) | 5 (A herbicidal effect or phytotoxicity of 90% or more) |
| CC(c1ccccc1)S(=O)(=O)C1=NOC(C)(C)C1 (centres unmarked) [Compound 1-581] | 5 (A herbicidal effect or phytotoxicity of 90% or more) | 5 (A herbicidal effect or phytotoxicity of 90% or more) | 5 (A herbicidal effect or phytotoxicity of 90% or more) | 4 (A herbicidal effect or phytotoxicity of 70% to less than 90%) |  |  |
| CCC1(C)CC(S(=O)(=O)Cc2cccc(Cl)c2)=NO1 (centres unmarked) [Compound 1-193] | 5 (A herbicidal effect or phytotoxicity of 90% or more) |  |  | 5 (A herbicidal effect or phytotoxicity of 90% or more) | 5 (A herbicidal effect or phytotoxicity of 90% or more) | 4 (A herbicidal effect or phytotoxicity of 70% to less than 90%) |
